Measurements as given in patent publication US12234257B2, “Triterpene saponin derivative and use thereof” (KOREA INSTITUTE OF SCIENCE AND TECHNOLOGY, priority 2020, dated 2025).
Entries after “also recorded” stand apart in the source; their conditions may differ.

How the values were obtained:
SH-SY5Y cells = experiment: MTT assay to measure cell viability; type: cell-based, human; conditions: 24 hours
Description: Cell viability was detected using an MTT assay kit (Z-Cytox). Briefly, the SH-SY5Y cells were seeded on a 96-well plate at a density of 2×10^4 cells/well with 100 μL of a culture medium. After 24 hours, the SH-SY5Y cells were treated with AKNS-2 and/or MPP^+ having desired concentrations to identify cytotoxicity of AKNS-2 and MPP^+. After 24 hours, 10 μL of the MTT reagent was added to each well of the 96-well plate including the cells. Absorbance was measured at 450 nm using a microplate spectrophotometer (BioTek, Vt., USA). […] The next day, absorbance was measured at 1 hour after adding the MTT reagent thereto.

MAO-B = target: T1, MAO-B (Mus musculus, UniProt Q8BW75); experiment: Determination of MAO-B activity of ST and SN; type: in vivo, mice (C57BL/6j); conditions: both ST and SN; MPTP 30 mg/kg mice; 5 mg/kg and 15 mg/kg p.o.
T1 construct: a MAO-B substrate was added to a MAO-B enzyme-containing substance (ST and SN samples); from tissue; host or cells: mouse brain: striatum (ST) and substantia nigra (SN/SNpc) homogenate supernatant
T1 sequence (Q8BW75 1-520): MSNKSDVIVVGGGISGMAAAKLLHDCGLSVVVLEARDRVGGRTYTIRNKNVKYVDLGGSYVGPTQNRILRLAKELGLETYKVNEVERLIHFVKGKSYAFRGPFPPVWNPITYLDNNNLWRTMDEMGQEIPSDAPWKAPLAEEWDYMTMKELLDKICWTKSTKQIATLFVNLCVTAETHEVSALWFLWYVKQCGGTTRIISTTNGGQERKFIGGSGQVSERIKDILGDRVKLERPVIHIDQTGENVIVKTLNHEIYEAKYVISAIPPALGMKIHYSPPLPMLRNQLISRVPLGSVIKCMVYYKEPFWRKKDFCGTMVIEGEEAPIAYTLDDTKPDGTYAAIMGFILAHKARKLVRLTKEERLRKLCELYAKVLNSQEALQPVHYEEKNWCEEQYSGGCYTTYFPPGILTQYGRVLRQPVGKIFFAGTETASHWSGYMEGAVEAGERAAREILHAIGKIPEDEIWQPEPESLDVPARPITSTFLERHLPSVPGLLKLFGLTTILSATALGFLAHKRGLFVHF
Description: 40 mice were classified into five groups such that eight mice belonged to each group. After the habituation period, all mice were orally administered with a drug every day. While the mice of Groups 1 and 2 were administered with saline (p.o.), the mice of Groups 3, 4, and 5 were administered with 5 mg/kg ropinirole (p.o.), 5 mg/kg AKNS-2 (p.o.), and 15 mg/kg AKNS-2 (p.o.), respectively. From the 5th day therefrom, the mice of Group 1 were intraperitoneally administered with a saline at 1 hour after gavage feeding of saline, and the mice of Groups 2, 3, 4, and 5 were administered with 30 mg/kg MPTP (i.p.) at 1 hour after gavage feeding of saline, ropinirole, AKNS-2 (5 mg/kg), and AKNS-2 (15 mg/kg), respectively. […]
On the 7th day after the last administration of MPTP, SNpc and ST of each mouse were carefully excised and stored at −80° C. until use. […] A concentration of proteins contained in the supernatant was measured by the Bradford method. […]
A MAO-B assay kit of Promega Corporation (Woods Hollow Road, Madison, Wis., USA) was used to determine MAO-B activity of ST and SN according to the manufacturer's instructions. […] Luminescence signals were measured using an Infinite M1000 multimode microplate reader (TECAN, Männedorf, Switzerland). MAO-B activity was expressed as relative light unit (RLU)/mg protein).

## C[C@@H]1O[C@@H](O[C@@H]2[C@@H](O)[C@H](O[C@@H]3[C@@H](O[C@@H]4OC[C@@H](O)[C@H](O)[C@H]4O)[C@@H](O)[C@H](O[C@H]4[C@H](OC(=O)[C@]56CCC(C)(C)C[C@H]5C5=CC[C@@H]7[C@@]8(C)C[C@H](O)[C@H](O[C@@H]9O[C@H](CO)[C@@H](O)[C@H](O[C@@H]%10OC[C@@H](O)[C@H](O)[C@H]%10O)[C@H]9O)[C@@](C)(CO)[C@@H]8CC[C@@]7(C)[C@]5(C)C[C@H]6O)OC[C@H](O)[C@@H]4O)O[C@H]3C)OC[C@H]2O)[C@H](O)[C@H](O)[C@H]1O [Compound 1, 3-O-β-D-xylopyranosyl-(1→3)-β-D-glucopyranosylpolygalacic acid 28-O-α-L-rhamnopyranosyl-(1→3)-β-D-xylopyranosyl-(1→4)-[β-D-xylopyranosyl-(1→3)]-α-L-rhamnopyranosyl-(1→2)-α-L-arabinopyranosyl ester]
SH-SY5Y cells; AKNS-2 5 μM and 10 μM 1 hour before 2 mM MPP^+
  cell viability damaged by MPP^+ (MTT): significantly improved cell viability damaged by 2 mM MPP^+; also recorded: significantly enhanced cell viability that had decreased by MPP^+; also recorded: reversed the effects of MPP^+ on cell viability
SH-SY5Y cells; AKNS-2 alone, up to 40 μM
  cytotoxicity (cell viability, MTT): did not significantly affect cytotoxicity
MAO-B
  activity of MAO-B increased by MPTP: could not reduce the activity of MAO-B
